Like-named read-outs stand apart in the source and are kept apart here.
How the values were obtained:
NCI-H1155 cells = assay: NSCLC cell viability, CellTiter-Glo, NCI-H1155 cells; assay type: cell-based; conditions: Homo sapiens, read-out: Cell viability classification (NCI-H1155)
GSPT1 = GSPT1 (Homo sapiens, UniProt P15170+Q96SW2); assay type: cell-based
Experimental: GSPT1_HiBIT_HEK293 cells were culture in DMEM medium with 10% FBS under standard tissue culture conditions. […] GSPT1 level was determined in along with the Nano-Glo HiBiT Lytic Detection system [Promega N3050] with final concentration of 1×. The luminescence was normalized to that of DMSO-treated samples. DC50 values were obtained using three-parameter non-linear regressions using Prism (GraphPad).

[1] = NCI-H1155 cells, CellTiter-Glo, 72 hours of treatment
[2] = DC50, GSPT1_HiBIT_HEK293 cells, 16 hours, Nano-Glo HiBiT Lytic Detection; read-out: GSPT1 degradation classification
[3] = read-out: GSPT1 degradation classification; DC50, GSPT1_HiBIT_HEK293 cells, 16 hours, Nano-Glo HiBiT Lytic Detection

GSPT1, sequence (P15170 whole entry): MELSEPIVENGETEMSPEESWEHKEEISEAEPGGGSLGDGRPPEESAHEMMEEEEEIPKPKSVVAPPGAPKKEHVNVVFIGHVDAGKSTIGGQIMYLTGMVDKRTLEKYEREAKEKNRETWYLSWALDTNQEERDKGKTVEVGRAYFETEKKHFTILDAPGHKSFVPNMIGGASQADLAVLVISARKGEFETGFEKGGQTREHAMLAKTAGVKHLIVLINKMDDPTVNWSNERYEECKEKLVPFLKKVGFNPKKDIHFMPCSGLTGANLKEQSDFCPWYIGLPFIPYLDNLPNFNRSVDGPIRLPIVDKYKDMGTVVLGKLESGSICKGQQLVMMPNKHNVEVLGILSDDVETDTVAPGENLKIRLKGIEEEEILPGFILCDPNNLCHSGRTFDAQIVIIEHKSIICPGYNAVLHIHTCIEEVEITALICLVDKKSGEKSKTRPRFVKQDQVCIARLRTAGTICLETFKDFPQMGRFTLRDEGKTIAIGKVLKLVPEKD
GSPT1, sequence (Q96SW2 whole entry): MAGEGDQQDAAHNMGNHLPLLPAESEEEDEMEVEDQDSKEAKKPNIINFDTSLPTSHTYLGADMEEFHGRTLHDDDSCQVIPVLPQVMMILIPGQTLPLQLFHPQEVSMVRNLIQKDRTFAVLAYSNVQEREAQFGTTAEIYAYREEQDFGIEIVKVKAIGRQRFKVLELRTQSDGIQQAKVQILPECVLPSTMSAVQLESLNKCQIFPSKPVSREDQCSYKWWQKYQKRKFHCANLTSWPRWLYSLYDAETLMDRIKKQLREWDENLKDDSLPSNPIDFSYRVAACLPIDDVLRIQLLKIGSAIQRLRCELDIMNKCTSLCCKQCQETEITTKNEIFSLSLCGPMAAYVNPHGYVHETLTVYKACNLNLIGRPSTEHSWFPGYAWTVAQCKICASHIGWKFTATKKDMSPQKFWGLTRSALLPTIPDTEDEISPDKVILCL
GSPT1, sequence (Q16531 whole entry partner): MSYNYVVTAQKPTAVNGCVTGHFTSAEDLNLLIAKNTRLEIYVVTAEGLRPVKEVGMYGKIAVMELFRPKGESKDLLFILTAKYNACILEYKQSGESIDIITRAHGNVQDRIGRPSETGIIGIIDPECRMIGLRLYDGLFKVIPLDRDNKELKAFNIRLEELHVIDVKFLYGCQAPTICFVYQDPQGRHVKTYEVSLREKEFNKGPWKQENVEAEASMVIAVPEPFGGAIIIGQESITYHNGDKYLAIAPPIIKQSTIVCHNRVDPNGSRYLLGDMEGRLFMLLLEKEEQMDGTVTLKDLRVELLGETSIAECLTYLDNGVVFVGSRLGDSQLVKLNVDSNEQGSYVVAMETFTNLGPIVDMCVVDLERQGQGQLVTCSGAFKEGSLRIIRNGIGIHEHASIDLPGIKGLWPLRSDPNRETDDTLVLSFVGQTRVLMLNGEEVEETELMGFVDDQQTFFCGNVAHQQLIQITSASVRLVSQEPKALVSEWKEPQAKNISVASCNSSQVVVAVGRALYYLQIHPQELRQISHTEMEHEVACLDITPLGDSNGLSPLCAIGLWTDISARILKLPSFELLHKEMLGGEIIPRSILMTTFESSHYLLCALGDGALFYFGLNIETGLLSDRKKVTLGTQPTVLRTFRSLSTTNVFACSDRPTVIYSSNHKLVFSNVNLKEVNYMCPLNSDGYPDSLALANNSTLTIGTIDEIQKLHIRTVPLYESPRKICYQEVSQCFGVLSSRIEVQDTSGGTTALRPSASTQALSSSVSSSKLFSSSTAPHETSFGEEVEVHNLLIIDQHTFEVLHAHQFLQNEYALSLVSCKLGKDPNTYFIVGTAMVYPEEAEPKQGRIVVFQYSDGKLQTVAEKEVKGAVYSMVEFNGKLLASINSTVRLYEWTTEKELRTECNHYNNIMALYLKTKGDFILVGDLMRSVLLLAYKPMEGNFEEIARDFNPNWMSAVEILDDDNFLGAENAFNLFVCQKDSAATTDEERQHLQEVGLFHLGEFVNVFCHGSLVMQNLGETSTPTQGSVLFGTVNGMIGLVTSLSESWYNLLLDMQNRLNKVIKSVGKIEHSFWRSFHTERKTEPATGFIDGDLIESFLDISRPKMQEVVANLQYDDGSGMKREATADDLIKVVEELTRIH

| SMILES | IC50 (NCI-H1155 cells; [1]) [nM] | DC50 (GSPT1; [2]) [nM] | DC50 (GSPT1; [3]) [nM] | IC50 (NCI-H1155 cells; NCI-H1155, 72 h) [nM] |
| --- | --- | --- | --- | --- |
| N#Cc1cc(F)c2c(c1)CN(C(=O)c1ccc3nc(C4CCC(=O)NC4=O)oc3c1)C2 (stereo not shown) [Example 200, 2-(2-(2,6-dioxopiperidin-3-yl)benzo[d]oxazole-6-carbonyl)-7-fluoroisoindoline-5-carbonitrile] | 100 to 1000 | > 1000 |  |  |
| O=C1CCC(N2Cc3cc(C(=O)N4CCC5(CCC(F)(F)C5)C4)ccc3C2=O)C(=O)N1 (stereo not shown) [Example 201, 3-(5-(7,7-difluoro-2-azaspiro[4.4]nonane-2-carbonyl)-1-oxoisoindolin-2-yl)piperidine-2,6-dione] | 100 to 1000 |  | > 1000 |  |
| O=C1CCC(N2Cc3cc(C(=O)NC4CC5(C4)CC(c4ccc(C(F)(F)F)cc4F)C5)ccc3C2=O)C(=O)N1 (stereo not shown) [Example 258, 2-(2,6-dioxopiperidin-3-yl)-N-(6-(2-fluoro-4-(trifluoromethyl)phenyl)spiro[3.3]heptan-2-yl)-1-oxoisoindoline-5-carboxamide] | 100 to 1000 | 100 to 300 |  |  |
| O=C1CCC(N2Cc3cc(C(=O)N4Cc5ccc(OC(F)(F)F)c(F)c5C4)ccc3C2=O)C(=O)N1 (stereo not shown) [Example 263, 3-(5-(4-fluoro-5-(trifluoromethoxy)isoindoline-2-carbonyl)-1-oxoisoindolin-2-yl)piperidine-2,6-dione] | 10 to 100 |  | 100 to 300 |  |
| O=C1CCC(N2Cc3cc(C(=O)N4Cc5cccc(Cl)c5C4)ccc3C2=O)C(=O)N1 (stereo not shown) [Example 112, 3-(5-(4-chloroisoindoline-2-carbonyl)-1-oxoisoindolin-2-yl)piperidine-2,6-dione] | < 10 |  | < 100 |  |
| O=C1CCC(N2Cc3cc(C(=O)N4Cc5cc(F)cc(C(F)(F)F)c5C4)ccc3C2=O)C(=O)N1 (stereo not shown) [Example 264, 3-(5-(6-fluoro-4-(trifluoromethyl)isoindoline-2-carbonyl)-1-oxoisoindolin-2-yl)piperidine-2,6-dione] | 10 to 100 |  | < 100 |  |
| O=C1CCC(N2Cc3cc(C(=O)N4CC5(C=C(c6ccc(F)cc6F)C5)C4)ccc3C2=O)C(=O)N1 (stereo not shown) [Example 235] | < 10 |  | < 100 |  |
| O=C1CCC(N2Cc3cc(C(=O)N4CCC5(C4)CC(F)(F)C5)ccc3C2=O)C(=O)N1 (stereo not shown) [Example 189, 3-(5-(2,2-difluoro-6-azaspiro[3.4]octane-6-carbonyl)-1-oxoisoindolin-2-yl)piperidine-2,6-dione] | 100 to 1000 |  | > 1000 |  |
| O=C1CCC(c2nc3ccc(C(=O)N4CC5(CCC(F)(F)C5)C4)cc3o2)C(=O)N1 (stereo not shown) [Example 198, 3-(6-(6,6-difluoro-2-azaspiro[3.4]octane-2-carbonyl)benzo[d]oxazol-2-yl)piperidine-2,6-dione] | > 1000 | > 1000 |  |  |
| N#Cc1ccc(C2CC3(CC(NC(=O)c4ccc5c(c4)CN(C4CCC(=O)NC4=O)C5=O)C3)C2)cc1 (stereo not shown) [Example 219, N-(6-(4-cyanophenyl)spiro[3.3]heptan-2-yl)-2-(2,6-dioxopiperidin-3-yl)-1-oxoisoindoline-5-carboxamide] | 10 to 100 | 100 to 300 |  |  |
| O=C1CCC(c2nc3ccc(C(=O)N4Cc5cccc(Cl)c5C4)cc3o2)C(=O)N1 (stereo not shown) [Example 158, 3-(6-(4-chloroisoindoline-2-carbonyl)benzo[d]oxazol-2-yl)piperidine-2,6-dione] | 10 to 100 | 100 to 300 |  |  |
| Cc1ccc(C2CC3(CC(NC(=O)c4ccc5c(c4)CN(C4CCC(=O)NC4=O)C5=O)C3)C2)cc1 (stereo not shown) [Example 227, 2-(2,6-dioxopiperidin-3-yl)-1-oxo-N-(6-(p-tolyl)spiro[3.3]heptan-2-yl)isoindoline-5-carboxamide] | < 10 |  | < 100 |  |
| O=C1CCC(c2nc3ccc(C(=O)N4Cc5cccc(F)c5C4)cc3o2)C(=O)N1 (stereo not shown) [Example 137, 3-(6-(4-fluoroisoindoline-2-carbonyl)benzo[d]oxazol-2-yl)piperidine-2,6-dione] | 100 to 1000 | 300 to 1000 |  |  |
| O=C1CCC(N2Cc3cc(C(=O)NC4CC5(C4)CC(c4ccc(F)cc4F)C5)c(F)cc3C2=O)C(=O)N1 (stereo not shown) [Example 255, N-(6-(2,4-difluorophenyl)spiro[3.3]heptan-2-yl)-2-(2,6-dioxopiperidin-3-yl)-6-fluoro-1-oxoisoindoline-5-carboxamide] | 10 to 100 | < 100 |  |  |
| O=C1CCC(N2Cc3cc(C(=O)N4CC5(CC(c6ccc(F)cc6)C5)C4)ccc3C2=O)C(=O)N1 (stereo not shown) [Example 205, 3-(5-(6-(4-fluorophenyl)-2-azaspiro[3.3]heptane-2-carbonyl)-1-oxoisoindolin-2-yl)piperidine-2,6-dione] | 10 to 100 | 100 to 300 |  |  |
| O=C1CCC(N2Cc3cc(C(=O)N4CC5(C4)CC(F)(c4cccc(F)c4)C5)ccc3C2=O)C(=O)N1 (stereo not shown) [Example 203, 3-(5-(6-fluoro-6-(3-fluorophenyl)-2-azaspiro[3.3]heptane-2-carbonyl)-1-oxoisoindolin-2-yl)piperidine-2,6-dione] |  |  | > 1000 | 100 to 1000 |

| SMILES | IC50 (NCI-H1155 cells; [1]) [nM] | DC50 (GSPT1; [2]) [nM] | DC50 (GSPT1; [3]) [nM] | IC50 (NCI-H1155 cells; NCI-H1155, 72 h) [nM] |
| --- | --- | --- | --- | --- |
| O=C1CCC(N2Cc3cc(C(=O)N4CC5(C=C(c6ccc(C(F)(F)F)cc6F)C5)C4)ccc3C2=O)C(=O)N1 (stereo not shown) [Example 241, 3-(5-(6-(2-fluoro-4-(trifluoromethyl)phenyl)-2-azaspiro[3.3]hept-5-ene-2-carbonyl)-1-oxoisoindolin-2-yl)piperidine-2,6-dione] | 10 to 100 |  | < 100 |  |
| O=C1CCC(c2nc3ccc(C(=O)N4CCc5ccc(F)cc54)cc3o2)C(=O)N1 (stereo not shown) [Example 107, 3-(6-(6-fluoroindoline-1-carbonyl)benzo[d]oxazol-2-yl)piperidine-2,6-dione] | 100 to 1000 | 300 to 1000 |  |  |
| Cc1cccc2c1CN(C(=O)c1ccc3nc(C4CCC(=O)NC4=O)oc3c1)C2 (stereo not shown) [Example 161, 3-(6-(4-methylisoindoline-2-carbonyl)benzo[d]oxazol-2-yl)piperidine-2,6-dione] | 10 to 100 | 100 to 300 |  |  |
| O=C1CCC(N2Cc3cc(C(=O)N4CC5(CCC(OC(F)(F)F)CC5)C4)ccc3C2=O)C(=O)N1 (stereo not shown) [Example 184, 3-(1-oxo-5-(7-(trifluoromethoxy)-2-azaspiro[3.5]nonane-2-carbonyl)isoindolin-2-yl)piperidine-2,6-dione] | 10 to 100 | 100 to 300 |  |  |
| O=C1CCC(c2nc3ccc(C(=O)N4Cc5ccc(F)c(Cl)c5C4)cc3o2)C(=O)N1 (stereo not shown) [Example 197, 3-(6-(4-chloro-5-fluoroisoindoline-2-carbonyl)benzo[d]oxazol-2-yl)piperidine-2,6-dione] | 100 to 1000 | > 1000 |  |  |
| Cc1cc(F)c2c(c1)CN(C(=O)c1ccc3nc(C4CCC(=O)NC4=O)oc3c1)C2 (stereo not shown) [Example 199, 3-(6-(4-fluoro-6-methylisoindoline-2-carbonyl)benzo[d]oxazol-2-yl)piperidine-2,6-dione] | 100 to 1000 | > 1000 |  |  |
| O=C1CCC(c2nc3ccc(C(=O)N4CC5(C=C(c6ccc(F)cc6)C5)C4)cc3o2)C(=O)N1 (stereo not shown) [Example 206, 3-(6-(6-(4-fluorophenyl)-2-azaspiro[3.3]hept-5-ene-2-carbonyl)benzo[d]oxazol-2-yl)piperidine-2,6-dione] | > 1000 | > 1000 |  |  |
| O=C1CCC(N2Cc3cc(C(=O)N4Cc5c(Cl)ccc(C(F)(F)F)c5C4)ccc3C2=O)C(=O)N1 (stereo not shown) [Example 261, 3-(5-(4-chloro-7-(trifluoromethyl)isoindoline-2-carbonyl)-1-oxoisoindolin-2-yl)piperidine-2,6-dione] | 10 to 100 |  | 100 to 300 |  |
| O=C1CCC(N2Cc3cc(C(=O)N4CC5(C=C(c6ccc(C(F)(F)F)cc6)C5)C4)ccc3C2=O)C(=O)N1 (stereo not shown) [Example 209, 3-(1-oxo-5-(6-(4-(trifluoromethyl)phenyl)-2-azaspiro[3.3]hept-5-ene-2-carbonyl)isoindolin-2-yl)piperidine-2,6-dione] | < 10 |  | < 100 |  |
| C[C@@H]1CN(C(=O)c2ccc3c(c2)CN(C2CCC(=O)NC2=O)C3=O)c2cc(F)ccc21 (stereo partly drawn) [Example 133, 3-(5-((S)-6-fluoro-3-methylindoline-1-carbonyl)-1-oxoisoindolin-2-yl)piperidine-2,6-dione] | < 10 |  | < 100 |  |
| O=C1CCC(N2Cc3cc(C(=O)N4CC5(C=C(c6ccc(C(F)(F)F)c(F)c6)C5)C4)ccc3C2=O)C(=O)N1 (stereo not shown) [Example 240, 3-(5-(6-(3-fluoro-4-(trifluoromethyl)phenyl)-2-azaspiro[3.3]hept-5-ene-2-carbonyl)-1-oxoisoindolin-2-yl)piperidine-2,6-dione] | < 10 |  | < 100 |  |
| O=C1CCC(c2nc3cc(COC(=O)N4CC5(C4)CC(F)(F)C5)ccc3o2)C(=O)N1 (stereo not shown) [Example 262, (2-(2,6-dioxopiperidin-3-yl)benzo[d]oxazol-5-yl)methyl 6,6-difluoro-2-azaspiro[3.3]heptane-2-carboxylate] | > 1000 |  |  |  |
| Cc1cc(F)c2c(c1)CN(C(=O)c1ccc3c(c1)CN(C1CCC(=O)NC1=O)C3=O)C2 (stereo not shown) [Example 155, 3-(5-(4-fluoro-6-methylisoindoline-2-carbonyl)-1-oxoisoindolin-2-yl)piperidine-2,6-dione] | < 10 |  |  |  |
| O=C1CCC(N2Cc3cc(C(=O)N4CC5(CCC(C(F)(F)F)CC5)C4)ccc3C2=O)C(=O)N1 (stereo not shown) [Example 251, 3-(1-oxo-5-(7-(trifluoromethyl)-2-azaspiro[3.5]nonane-2-carbonyl)isoindolin-2-yl)piperidine-2,6-dione] | 100 to 1000 |  |  |  |
| O=C1CCC(c2nc3ccc(C(=O)N4Cc5cccc(OC(F)(F)F)c5C4)cc3o2)C(=O)N1 (stereo not shown) [Example 153, 3-(6-(4-(trifluoromethoxy)isoindoline-2-carbonyl)benzo[d]oxazol-2-yl)piperidine-2,6-dione] | > 1000 |  |  |  |

Reference: patent US20260285872A1, “COMPOUNDS AND METHODS FOR DEGRADING GSPT1” (priority 2023, published 2026)
